For this assay, the system named is nude mice, LOX melanoma ip, survival T/C. The assay is described as follows: NCI In Vivo Anticancer Drug Screen. Data for tumor model Human Amelanotic Melanoma (LOX) (intraperitoneal) in NU/NU BALB/C (nude) mice. To be noted: endpoint: median survival time, schedule: Q04DX003 (ip), higher = longer survival. As to the method: The antitumor activity of compounds was measured in mice bearing transplantable tumors. Survival or tumor size were measured and the results are expressed as the measurement made in the treated group (T) divided by the measurement made in the vehicle treated control group (C). The tumor model used in this assay is Human Amelanotic Melanoma (LOX) (intraperitoneal) in NU/NU BALB/C (nude) mice

Setting [1] is: dose: 25.0 mg/kg/injection, vehicle: saline with Tween-80.
Setting [2] is: dose: 75.0 mg/kg/injection, vehicle: other.
The mark [3] stands for this setting: dose: 150.0 mg/kg/injection, vehicle: other.
[4] abbreviates: dose: 25.0 mg/kg/injection, vehicle: Klucel (hydroxypropylcellulose) (HPC).
Setting [5] is: dose: 50.0 mg/kg/injection, vehicle: Klucel (hydroxypropylcellulose) (HPC).
Where [6] appears, read: dose: 100.0 mg/kg/injection, vehicle: Klucel (hydroxypropylcellulose) (HPC).
[7] abbreviates: dose: 200.0 mg/kg/injection, vehicle: Klucel (hydroxypropylcellulose) (HPC).
The mark [8] stands for this setting: dose: 400.0 mg/kg/injection, vehicle: Klucel (hydroxypropylcellulose) (HPC).
The mark [9] stands for this setting: dose: 2.5 mg/kg/injection, vehicle: Klucel (hydroxypropylcellulose) (HPC).

Each structure is given as a SMILES string. Toxic doses and inconclusive results are not listed.

Turning to `NC(N)=NS(=O)(=O)c1ccc(NCc2c3ccccc3nc3ccccc23)cc1`, the T/C runs as follows: (dose: 600.0 mg/kg/injection, vehicle: Klucel (hydroxypropylcellulose) (HPC)) 166 % of control; (dose: 1200.0 mg/kg/injection, vehicle: Klucel (hydroxypropylcellulose) (HPC)) 155 % of control.

In the case of `COc1ccc(C(C)c2cc3c(cc2OC)OCO3)cc1` (stereo unspecified), the T/C is, setting by setting: under setting [1], 114 % of control; (dose: 100.0 mg/kg/injection, vehicle: saline with Tween-80) 158 % of control; (dose: 200.0 mg/kg/injection, vehicle: saline with Tween-80) 198 % of control.

In the case of `CC(=O)NO`, the T/C is 101 % of control (dose: 75.0 mg/kg/injection, vehicle: water); 101 % of control (dose: 150.0 mg/kg/injection, vehicle: water); 103 % of control (dose: 300.0 mg/kg/injection, vehicle: water); 103 % of control (dose: 600.0 mg/kg/injection, vehicle: water); 92 % of control (dose: 1200.0 mg/kg/injection, vehicle: water).

Consider `Cc1ccccc1N=C(c1ccccc1)C1C(=O)c2ccccc2C1=O`, for which the T/C was 101 % of control (dose: 75.0 mg/kg/injection, vehicle: DMSO); 105 % of control under setting [2]; 109 % of control (dose: 150.0 mg/kg/injection, vehicle: DMSO); 93 % of control under setting [3]; 101 % of control (dose: 300.0 mg/kg/injection, vehicle: DMSO); 103 % of control (dose: 300.0 mg/kg/injection, vehicle: other). For the same compound, the T/C reads like this: (dose: 600.0 mg/kg/injection, vehicle: DMSO) 103 % of control; (dose: 600.0 mg/kg/injection, vehicle: other) 103 % of control; (dose: 1200.0 mg/kg/injection, vehicle: DMSO) 99 % of control; (dose: 1200.0 mg/kg/injection, vehicle: other) 102 % of control.

In the case of `C=CCOc1cc2c(cc1C(C)c1ccc(OC)cc1)OCO2` (stereo unspecified), the T/C (dose: 37.5 mg/kg/injection, vehicle: Klucel (hydroxypropylcellulose) (HPC)) is 101 % of control; the T/C (dose: 75.0 mg/kg/injection, vehicle: Klucel (hydroxypropylcellulose) (HPC)) was 96 % of control; the T/C (dose: 150.0 mg/kg/injection, vehicle: Klucel (hydroxypropylcellulose) (HPC)) was 109 % of control; the T/C (dose: 300.0 mg/kg/injection, vehicle: Klucel (hydroxypropylcellulose) (HPC)) was 112 % of control.

As to `CN(C)c1ccc2c(Nc3ccc(NS(C)(=O)=O)cc3)c3ccc(N(C)C)cc3nc2c1`, the T/C under setting [4] was 101 % of control; the T/C under setting [5] was 98 % of control; the T/C under setting [6] was 113 % of control; the T/C under setting [7] was 163 % of control; the T/C under setting [8] was 109 % of control.

Turning to `COc1cc2c(c(OC)c1O)-c1ccc(OC)c(=O)cc1[C@@H](NC(=O)C(F)(F)F)CC2`, the T/C under setting [9] is 122 % of control.

For the compound `C/C(=N\NC(=S)N1CCN(c2ccccn2)CC1)c1ccccn1`, the T/C (dose: 10.0 mg/kg/injection, vehicle: water) is 89 % of control; the T/C (dose: 20.0 mg/kg/injection, vehicle: water) is 95 % of control; the T/C (dose: 40.0 mg/kg/injection, vehicle: water) is 94 % of control; the T/C (dose: 80.0 mg/kg/injection, vehicle: water) was 97 % of control.

In the case of `Nc1nc2c(C(=O)N3CCCC3)nnn2c2ccccc12`, the T/C runs as follows: (dose: 12.5 mg/kg/injection, vehicle: saline with Tween-80) 96 % of control; under setting [1], 102 % of control; (dose: 50.0 mg/kg/injection, vehicle: saline with Tween-80) 92 % of control.

For `Cc1ccc(C(=O)NC2C(=O)NC(C(C)C)C(=O)N3CCCC3C(=O)N(C)CC(=O)N(C)C(C(C)C)C(=O)OC2C)c2c1Oc1c(c(C(=O)NC3C(=O)NC(C(C)C)C(=O)N4CCCC4C(=O)N(C)CC(=O)N(C)C(C(C)C)C(=O)OC3C)c3nc(-c4ccccc4)c(=O)oc3c1C)N2` (stereo unspecified), the T/C runs as follows: (dose: 0.25 mg/kg/injection, vehicle: saline with Tween-80) 159 % of control; (dose: 0.5 mg/kg/injection, vehicle: saline with Tween-80) 161 % of control; (dose: 1.0 mg/kg/injection, vehicle: saline with Tween-80) 224 % of control; (dose: 2.0 mg/kg/injection, vehicle: saline with Tween-80) 295 % of control; (dose: 4.0 mg/kg/injection, vehicle: saline with Tween-80) 301 % of control.

As to `CCC(NC(N)=O)C(CC)NC(N)=O` (stereo unspecified), the T/C by setting is: (dose: 3.13 mg/kg/injection, vehicle: saline with Tween-80) 103 % of control; (dose: 6.25 mg/kg/injection, vehicle: saline with Tween-80) 109 % of control; under setting [1], 105 % of control.

Turning to `O=C(/C=C/c1cccnc1)/C=C/c1cccnc1`, the T/C was 104 % of control (dose: 6.25 mg/kg/injection, vehicle: Klucel (hydroxypropylcellulose) (HPC)); 105 % of control (dose: 12.5 mg/kg/injection, vehicle: Klucel (hydroxypropylcellulose) (HPC)); 111 % of control under setting [4]; 116 % of control under setting [5]; 88 % of control under setting [6].

As for `Nc1n[nH]c2ccccc12`, the T/C under setting [2] is 107 % of control and the T/C under setting [3] is 98 % of control.

`O=C(O)Cc1cccc(=O)c(O)c1C(=O)O`: the T/C runs as follows: (dose: 75.0 mg/kg/injection, vehicle: saline with Tween-80) 97 % of control; (dose: 150.0 mg/kg/injection, vehicle: saline with Tween-80) 94 % of control.

For the compound `CCOC(=O)c1c[nH]c2ccc3c(nc(C)n3C)c2c1=O`, the T/C runs as follows: under setting [5], 100 % of control; under setting [6], 104 % of control; under setting [7], 93 % of control; under setting [8], 100 % of control; (dose: 800.0 mg/kg/injection, vehicle: Klucel (hydroxypropylcellulose) (HPC)) 94 % of control.

With `O=C1C(=O)c2cccnc2-c2ncccc21`, the T/C was 94 % of control under setting [9] and 101 % of control (dose: 5.0 mg/kg/injection, vehicle: Klucel (hydroxypropylcellulose) (HPC)).

The values above are taken from PubChem BioAssay AID280 (DTP/NCI, 2004).
